Measured values from patent publication US20050215772A1, “Furanone derivatives and methods of making same” (priority 2002, published 2005).

Legend:
[1] = system: AHL mediated quorum sensing; format: cell-based
[2] = system: Staphylococcus aureus; experiment: Growth of Staphylococcus aureus; format: cell-based
Procedure: The growth of Staphylococcus aureus against furanones was tested in sidearm flasks. One percent of an overnight culture was added to the growth media, Nutrient Broth, containing furanones at the concentrations 1-50 μg/ml. The bacteria were incubated at 37 C and growth was measured at 610 nm.

[3] = system: AI-2 pathway; experiment: microbe, parasite or virus in culture; format: cell-based, V. harveyi; settings: Vibrio harveyi, read-out: AI-2 (% of control)
[4] = format: cell-based, V. vulnificus
[5] = system: V. vulnificus; experiment: Attachment by V. vulnificus; format: cell-based

| Structure (SMILES) | AHL [1] | S. aureus (% of control) ([2]; growth, 50 ug/ml) | further results |
| --- | --- | --- | --- |
| CCCC(Br)C1=CC(=C(Br)Br)N(c2ccccc2)C1=O (centres unmarked) [drawing 24] | + + + + |  | S. aureus (% of control) ([2]; growth for 10 hrs, concentration not given): 0% growth at ug/ml for 10 hrs % of control |
| CCCCC1=CC(=C(Br)Br)N(c2ccccc2)C1=O | + + + |  |  |
| CCCCC1=CC(=C(Br)Br)N(CCOC(=O)C(F)(F)F)C1=O | + + + | No effect (50 μg/ml) |  |
| CC1(O)NC(=O)C=C1c1ccccc1 (centres unmarked) |  |  | activity at 100 µg/mL [3]: 39%; activity at 25 µg/mL ([2]; Staphylococcus aureus, growth, 25 μg/ml, read-out: S. aureus (% of control)): 102% |
| CC1=CC(C)(Nc2ccccc2)OC1=O (centres unmarked) | + + | No effect 50 μg/ml | activity at 100 µg/mL [3]: 50% |
| CCCCCCCC1=CC(=O)N(c2ccccc2)C1(O)CBr (centres unmarked) | + + + |  |  |
| CCCCC1=CC(=C(Br)Br)N(CCOS(=O)(=O)c2ccc(C)cc2)C1=O | + + | No effect (50 μg/ml) |  |
| O=C1C=C(Br)/C(=C/Nc2ccccc2)O1 [drawing 35] |  |  | reduction in swimming motility [4]: 40-50% reduction in swimming motility in V. cholerae and V. vulnificus; reduction in attachment [5]: 30% reduction in attachment by V. vulnificus |
| C[C@@]1(Nc2ccccc2)OC(=O)C=C1N | + + + |  | activity at 5 µg/mL [3]: 80%; activity at 10 µg/mL [3]: 57%; activity at 50 µg/mL [3]: 26% |
| CCCC(Br)C1=CC(=C(Br)Br)N(c2ccccc2)C1=O (centres unmarked) [drawing 37] |  |  | reduction in swimming motility [4]: 40-50% reduction in swimming motility in V. cholerae and V. vulnificus; reduction in attachment [5]: 30% reduction in attachment by V. vulnificus |
| O=C1C=C(Br)/C(=C/Nc2ccccc2)O1 [drawing 26] | + + + |  | activity at 50 µg/mL [3]: 2%; activity at 50 µg/mL ([2]; Staphylococcus aureus, growth, 50 ug/ml, read-out: S. aureus (% of control)): 104% |
| C/C=C1\NC(=O)C=C1C | + + + | No effect 50 μg/ml |  |
| CCCCC1=C(Br)/C(=C/Nc2ccccc2)OC1=O | + + + + | No effect 50 μg/ml | activity at 20 µg/mL [3]: 61% |
